# Results taken from ChEMBL document CHEMBL1121574, “Third Smissman Award address: reminiscences and musings of a classical medicinal chemist” (J Med Chem, 1980).
# Calls of active or inactive are those of the source. The calls are words filed in the database; no cut-off is given here.
# Tests used:
# [1] = Abstinence suppressant dose of the compound; assay type: functional
# [2] = test system: Monkey; assay: Physical dependence capacity at abstinence suppressant dose; Intermediate; assay type: functional, organism-based; conditions: Cercopithecidae
# [3] = test system: Monkey; assay: Physical dependence capacity at abstinence suppressant dose; Low; assay type: functional, organism-based; conditions: Cercopithecidae
# [4] = Abstinence suppressant dose of the compound; range 0.5-12 mg/kg, no suppression; assay type: functional
# [5] = test system: Monkey; assay: Physical dependence capacity at abstinence suppressant dose; None; assay type: functional, organism-based; conditions: Cercopithecidae
# [6] = Abstinence suppressant dose of the compound; range 2-12mg/kg, no suppression; assay type: functional
# [7] = Abstinence suppressant dose of the compound; range 2-60 mg/kg, no suppression; assay type: functional
# [8] = Abstinence suppressant dose of the compound; range 2-60 no suppression; assay type: functional
# [9] = Abstinence suppressant dose of the compound; range 1-16 mg/kg, no suppression; assay type: functional
# [10] = Abstinence suppressant dose of the compound; range 3-30 mg/kg, no suppression; assay type: functional
# [11] = species on record: Mus musculus; assay: Analgesic activity in mouse; assay type: functional
# [12] = test system: Monkey; assay: Physical dependence capacity at abstinence suppressant dose; High; assay type: functional, organism-based; conditions: Cercopithecidae
# [13] = test system: Monkey; assay: Physical dependence capacity at abstinence suppressant dose; low; assay type: functional, organism-based; conditions: Cercopithecidae
# [14] = test system: Monkey; assay: Physical dependence capacity at abstinence suppressant dose; Very low; assay type: functional, organism-based; conditions: Cercopithecidae
# [15] = species on record: Mus musculus; assay: The compound was tested for its analgesic activity in mouse; Inactive; assay type: functional, organism-based
# [16] = test system: Monkey; assay: Physical dependence capacity at abstinence suppressant dose; No; assay type: functional, organism-based; conditions: Cercopithecidae
# [17] = test system: Monkey; assay: Physical dependence capacity at abstinence suppressant dose; high; assay type: functional, organism-based; conditions: Cercopithecidae
compound,measurement,setting,value
CC[C@]12CCN(C)C(Cc3ccc(O)cc31)C2C (some centres undefined),Dose,[1],1 mg/kg
same,Physical dependence capacity,[2],Intermediate
CC1C2Cc3ccc(O)cc3[C@]1(C)CCN2C (some centres undefined),Dose,[1],>18 mg/kg
same,Physical dependence capacity,[3],Low
CCC1C2Cc3ccc(O)cc3[C@]1(CC)CCN2C (some centres undefined),Dose,[4],0.5 mg/kg
same,Physical dependence capacity,[5],inactive
CC[C@H]1C2Cc3ccc(O)cc3[C@]1(C)CCN2C,Dose,[6],2 mg/kg
same,Physical dependence capacity,[5],inactive
CN1CC[C@]2(C)CC1Cc1ccc(O)cc12 [listing 1 of 2 here],Dose,[7],2 mg/kg
CC[C@]12CCN(C)C(Cc3ccc(O)cc31)[C@@H]2C,Dose,[1],>40 mg/kg
same,Physical dependence capacity,[3],Low
C[C@H]1C2Cc3ccc(O)cc3[C@]1(C)CCN2C [listing 1 of 2 here],Dose,[1],24 mg/kg
CC[C@H]1C2Cc3ccc(O)cc3[C@]1(CC)CCN2C [listing 1 of 2 here],Dose,[8],2 mg/kg
CC[C@]12CCN(C)C(Cc3ccc(O)cc31)C2 [listing 1 of 2 here],Dose,[9],1 mg/kg
CCC[C@]12CCN(C)C(Cc3ccc(O)cc31)C2,Dose,[10],3 mg/kg
same,Physical dependence capacity,[5],inactive
CC[C@H]1C2Cc3ccc(O)cc3[C@]1(CC)CCN2C [listing 2 of 2 here],Physical dependence capacity,[5],inactive
CC[C@]12CCN(C)C(Cc3ccc(O)cc31)C2 [listing 2 of 2 here],Physical dependence capacity,[3],Low
CN1CC[C@]2(C)CC1Cc1ccc(O)cc12 [listing 2 of 2 here],Physical dependence capacity,[5],inactive
C[C@H]1C2Cc3ccc(O)cc3[C@]1(C)CCN2C [listing 2 of 2 here],Physical dependence capacity,[3],Low
"CN1CC[C@]2(C)CC1Cc1ccc(O)cc12 (single isomer, unassigned; (+)) [listing 1 of 2 here]",ED50,[11],22.9 mg/kg
"CC[C@H]1C2Cc3ccc(O)cc3[C@]1(CC)CCN2C (single isomer, unassigned; (+)) [listing 1 of 2 here]",ED50,[11],7.5 mg/kg
"CC[C@]12CCN(C)C(Cc3ccc(O)cc31)C2 (single isomer, unassigned; (+)) [listing 1 of 2 here]",ED50,[11],21.8 mg/kg
"CCC[C@]12CCN(C)C(Cc3ccc(O)cc31)[C@@H]2C (single isomer, unassigned; (+)) [listing 1 of 2 here]",ED50,[11],12.3 mg/kg
"CCC[C@]12CCN(C)C(Cc3ccc(O)cc31)[C@@H]2C (single isomer, unassigned; (+)) [listing 2 of 2 here]",Physical dependence capacity,[12],High
"CC[C@H]1C2Cc3ccc(O)cc3[C@]1(CC)CCN2C (single isomer, unassigned; (+)) [listing 2 of 2 here]",Physical dependence capacity,[2],Intermediate
"CC[C@]12CCN(C)C(Cc3ccc(O)cc31)C2 (single isomer, unassigned; (+)) [listing 2 of 2 here]",Physical dependence capacity,[13],Low
"CN1CC[C@]2(C)CC1Cc1ccc(O)cc12 (single isomer, unassigned; (+)) [listing 2 of 2 here]",Physical dependence capacity,[14],Very low
"C[C@H]1C2Cc3ccc(O)cc3[C@]1(C)CCN2C (single isomer, unassigned; (+))",ED50,[15],inactive
same,Physical dependence capacity,[16],No dependance
"CN1CC[C@]2(C)CC1Cc1ccc(O)cc12 (single isomer, unassigned; (-)) [listing 1 of 2 here]",ED50,[11],1.8 mg/kg
"C[C@H]1C2Cc3ccc(O)cc3[C@]1(C)CCN2C (single isomer, unassigned; (-)) [listing 1 of 2 here]",ED50,"[11]; Mus musculus, read-out: ED50",0.6 mg/kg
"CC[C@H]1C2Cc3ccc(O)cc3[C@]1(CC)CCN2C (single isomer, unassigned; (-)) [listing 1 of 2 here]",ED50,[11],1.2 mg/kg
"CC[C@]12CCN(C)C(Cc3ccc(O)cc31)C2 (single isomer, unassigned; (-)) [listing 1 of 2 here]",ED50,[11],0.6 mg/kg
"CCC[C@]12CCN(C)C(Cc3ccc(O)cc31)[C@@H]2C (single isomer, unassigned; (-)) [listing 1 of 2 here]",ED50,[11],0.8 mg/kg
"CCC[C@]12CCN(C)C(Cc3ccc(O)cc31)[C@@H]2C (single isomer, unassigned; (-)) [listing 2 of 2 here]",Physical dependence capacity,[16],No dependance
"CC[C@H]1C2Cc3ccc(O)cc3[C@]1(CC)CCN2C (single isomer, unassigned; (-)) [listing 2 of 2 here]",Physical dependence capacity,[16],No dependance
"CC[C@]12CCN(C)C(Cc3ccc(O)cc31)C2 (single isomer, unassigned; (-)) [listing 2 of 2 here]",Physical dependence capacity,[16],No dependance
"CN1CC[C@]2(C)CC1Cc1ccc(O)cc12 (single isomer, unassigned; (-)) [listing 2 of 2 here]",Physical dependence capacity,[3],Low
"C[C@H]1C2Cc3ccc(O)cc3[C@]1(C)CCN2C (single isomer, unassigned; (-)) [listing 2 of 2 here]",Physical dependence capacity,[16],No dependance
COc1ccc2c3c1O[C@H]1[C@@H](O)C=C[C@H]4[C@@H](C2)N(C)CC[C@@]341 [CODEINE],ED50,"[11]; Mus musculus, read-out: ED50",7.5 mg/kg
same,Physical dependence capacity,[2],Partially active
CN1CC[C@]23c4c5ccc(O)c4O[C@H]2[C@@H](O)C=C[C@H]3[C@H]1C5 [MORPHINE],ED50,"[11]; Mus musculus, read-out: ED50",1.2 mg/kg
same,Physical dependence capacity,[17],Active
